Tests used:
[1] = system: Erwinia amylovora PMV6076; experiment: MIC, growth inhibition in microtiter plates (TSB); format: cell-based; settings: Ea, 25°C, 48 h, OD 600 nm, lowest concentration with no growth, given as interval of tested concentrations, three replicates, experiment repeated twice
How it was run: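 OD600 readout, hourly over 48 h at 25°C, 20 s shaking; TSB medium; inoculum from 10^8 CFU mL^-1 water suspension; triplicates, experiment run twice; MIC = lowest concentration showing no growth at endpoint.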

[2] = system: Pseudomonas syringae pv. actinidiae Psa3700.1.1; experiment: MIC, growth inhibition in microtiter plates (TSB); format: cell-based; settings: Psa, 25°C, 48 h, OD 600 nm, lowest concentration with no growth, given as interval of tested concentrations, three replicates, experiment repeated twice
How it was run: (§1)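 Peptides, dissolved in water at 1 mM and filter-sterilized, were diluted and mixed with bacterial suspension (10^8 CFU mL^-1 before mixing) in TSB. Plates were incubated at 25°C with shaking, and OD600 was read hourly for 48 h. MIC was the lowest concentration with no growth at the end.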

[3] = system: Pseudomonas syringae pv. syringae EPS94; experiment: MIC, growth inhibition in microtiter plates (TSB); format: cell-based; settings: Pss, 25°C, 48 h, OD 600 nm, lowest concentration with no growth, given as interval of tested concentrations, three replicates, experiment repeated twice
How it was run: as §1

[4] = system: Xanthomonas arboricola pv. pruni CFBP5563; experiment: MIC, growth inhibition in microtiter plates (TSB); format: cell-based; settings: Xap, 25°C, 48 h, OD 600 nm, lowest concentration with no growth, given as interval of tested concentrations, three replicates, experiment repeated twice
How it was run: as §1

[5] = system: Xanthomonas axonopodis pv. vesicatoria 2133–2; experiment: MIC, growth inhibition in microtiter plates (TSB); format: cell-based; settings: Xav, 25°C, 48 h, OD 600 nm, lowest concentration with no growth, given as interval of tested concentrations, three replicates, experiment repeated twice
How it was run: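 Agar-grown cells in water (10^8 CFU mL^-1 stock suspension) + serially diluted peptide (1 mM water stock) in TSB; 25°C, 48 h, OD600 hourly; no-growth endpoint gives MIC.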

[6] = system: Xanthomonas fragariae Xf349-9A; experiment: MIC, growth inhibition in microtiter plates (TSB); format: cell-based; settings: Xf, 25°C, 48 h, OD 600 nm, lowest concentration with no growth, given as interval of tested concentrations, three replicates, experiment repeated twice
How it was run: as §1

[7] = system: Fusarium oxysporum f. sp. lycopersici FOL 3 race 2; experiment: MIC, antifungal growth inhibition in microtiter plates (PDB); format: cell-based; settings: Fo, 22°C, seven days, OD 600 nm, lowest concentration with no growth, given as interval of tested concentrations, three replicates, experiment repeated twice
How it was run: (§2)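 Conidial suspensions (10^3 conidia/mL P. expansum, 10^4 F. oxysporum) incubated with peptides in PDB with 0.003% chloramphenicol at 22 °C for seven days, OD600 read every 2 h. MIC is the lowest concentration with no growth at the end; triplicates, experiment repeated twice.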

[8] = system: Penicillium expansum EPS26; experiment: as above; format: cell-based; settings: Pe, 22°C, seven days, OD 600 nm, lowest concentration with no growth, given as interval of tested concentrations, three replicates, experiment repeated twice
How it was run: as §2

tobacco leaves = experiment: Effect of peptide infiltration on tobacco leaves; format: in vivo; settings: for Diameter of necrotic area in infiltrated tobacco leaves: 100 μL infiltrated, after 48 h
Protocol: BP100 and the 36 lipopeptides were evaluated for their effect upon infiltration on tobacco leaves as described previously. Peptide solutions of 50, 150 and 250 μM were infiltrated (100 μL) into the mesophylls of fully expanded tobacco leaves. Infiltrations were carried out in a single leaf, and for each peptide and dose, at least three leaves randomly distributed in different plants were inoculated. Control infiltrations with water (negative control) or melittin (positive control) at the same molar concentration were performed. The appearance of symptoms on the leaves was followed for 48 h after infiltration and measured as a lesion diameter.

proteinase K = system: T1, proteinase K; experiment: Susceptibility to protease degradation; format: in vitro ADME; settings: proteinase K (isolated protease) in TRIS buffer; 50 μg/mL peptide, 1 μg/mL proteinase K, 100 mM TRIS buffer pH 7.6, 25°C, 60 min; decrease of HPLC peak area (220 nm); read-out: Digestion with proteinase K (percentage of degraded peptide)
T1 construct: purchased Sigma-Aldrich Corporation, Spain
Protocol: Digestion of BP100 and of 16 selected lipopeptides was carried out by treating 50 μg/mL peptide with 1 μg/mL proteinase K (Sigma-Aldrich Corporation, Spain) in 100 mM TRIS buffer, pH 7.6, at 25°C. The peptide cleavage after 60 min was determined by HPLC using a Kromasil (4.6 × 40 mm; 3 μm particle size) C18 reverse-phase column. Linear gradients of 0.1% aqueous TFA and 0.1% TFA in CH3CN were run from 0.98:0.02 to 0:1 over 12 min with UV detection at 220 nm. Digestion was estimated as the percentage of degraded lipopeptide calculated from the decrease of the HPLC peak area of the native peptide.

| SMILES | MIC [1] | MIC [2] | MIC [3] | MIC [4] | MIC [5] | MIC [6] | MIC [7] | MIC [8] | Size of the lesions in infiltrated tobacco leaves (diameter) (tobacco leaves; 250 μM, 100 μL infiltrated into mesophyll, measured after 48 h) | metabolised at 1 h, 50 μg/mL (proteinase K) | Diameter of necrotic area in infiltrated tobacco leaves (tobacco leaves; 50 μM) | Diameter of necrotic area in infiltrated tobacco leaves (tobacco leaves; 250 μM) |
| --- | --- | --- | --- | --- | --- | --- | --- | --- | --- | --- | --- | --- |
| CCCCCC(=O)NCCCC[C@H](NC(=O)[C@H](CCCCN)NC(=O)[C@H](CCCCN)NC(C)=O)C(=O)N[C@@H](Cc1ccccc1)C(=O)N[C@@H](CCCCN)C(=O)N[C@@H](CCCCN)C(=O)N[C@H](C(=O)N[C@@H](CC(C)C)C(=O)N[C@@H](CCCCN)C(=O)N[C@@H](Cc1ccc(O)cc1)C(=O)N[C@@H](CC(C)C)C(N)=O)[C@@H](C)CC [BP370, Ac-KKK(COC5H11)FKKILKYL-NH2] | 3.1 to 6.2 µM | 3.1 to 6.2 µM | 3.1 to 6.2 µM | 3.1 to 6.2 µM | 3.1 to 6.2 µM | 6.2 to 12.5 µM | 0.8 to 1.6 µM | 6.2 to 12.5 µM | 5.0 ± 1.6 mm | 26% | – | – |
| CC[C@H](C)[C@H](NC(=O)CN)C(=O)NCC(=O)N[C@@H](C)C(=O)N[C@H](C(=O)N[C@@H](CC(C)C)C(=O)N[C@@H](CCCCN)C(=O)N[C@H](C(=O)N[C@@H](CC(C)C)C(=O)N[C@H](C(=O)N[C@H](C(=O)NCC(=O)N[C@@H](CC(C)C)C(=O)N1CCC[C@H]1C(=O)N[C@@H](C)C(=O)N[C@@H](CC(C)C)C(=O)N[C@H](C(=O)N[C@@H](CO)C(=O)N[C@@H](Cc1c[nH]c2ccccc12)C(=O)N[C@H](C(=O)N[C@@H](CCCCN)C(=O)N[C@@H](CCCNC(=N)N)C(=O)N[C@@H](CCCCN)C(=O)N[C@@H](CCCNC(=N)N)C(=O)N[C@@H](CCC(N)=O)C(=O)N[C@@H](CCC(N)=O)C(N)=O)[C@@H](C)CC)[C@@H](C)CC)[C@@H](C)O)[C@@H](C)O)C(C)C)C(C)C [melittin, reference compound] | – | – | – | – | – | – | – | – | – | – | 1.1 cm | 2.3 cm |
| CCCCCCCCCCCC(=O)NCCCC[C@H](NC(=O)[C@H](CC(C)C)NC(=O)[C@H](CCCCN)NC(=O)[C@H](CCCCN)NC(C)=O)C(=O)N[C@@H](CCCCN)C(=O)N[C@@H](CCCCN)C(=O)N[C@H](C(=O)N[C@@H](CC(C)C)C(=O)N[C@@H](CCCCN)C(=O)N[C@@H](Cc1ccc(O)cc1)C(=O)N[C@@H](CC(C)C)C(N)=O)[C@@H](C)CC [BP395, Ac-KKLK(COC11H23)KKILKYL-NH2] | 12.5 to 25 µM | 3.1 to 6.2 µM | 3.1 to 6.2 µM | 1.6 to 3.1 µM | 1.6 to 3.1 µM | 1.6 to 3.1 µM | 6.2 to 12.5 µM | 12.5 to 25 µM | – | – | – | – |
| CCCCCCCCCCCC(=O)NCCCC[C@H](NC(=O)[C@@H](NC(=O)[C@H](CCCCN)NC(=O)[C@H](CCCCN)NC(=O)[C@H](Cc1ccccc1)NC(=O)[C@H](CC(C)C)NC(=O)[C@H](CCCCN)NC(=O)[C@H](CCCCN)NC(C)=O)[C@@H](C)CC)C(=O)N[C@@H](CCCCN)C(=O)N[C@@H](Cc1ccc(O)cc1)C(=O)N[C@@H](CC(C)C)C(N)=O [BP399, Ac-KKLFKKIK(COC11H23)KYL-NH2] | >25 µM | 3.1 to 6.2 µM | 3.1 to 6.2 µM | 1.6 to 3.1 µM | 0.8 to 1.6 µM | 3.1 to 6.2 µM | 6.2 to 12.5 µM | 12.5 to 25 µM | – | – | – | – |

Source: paper PMC6063448, “Antimicrobial activity of linear lipopeptides derived from BP100 towards plant pathogens” (PLoS ONE, 2018)
